Results reported in ChEMBL document CHEMBL1201862, “PubChem BioAssay data set” (2004).
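Results reflect a 48-hour exposure of cells in 96-well plates to compound at five concentrations. Here, GI50 denotes the concentration required for 50% inhibition of growth.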 The source made the active and inactive calls. Rule as the data show it: active = GI50 up to about 1.1 µM and inactive = higher.

Tests used:
Test in all cases: NCI anticancer screen, dose series, 48 h
[1] = system: M14
[2] = system: NCI-H226
[3] = system: T47D
[4] = system: DU-145
[5] = system: HOP-62
[6] = system: BT-549
[7] = system: HCC 2998
[8] = system: NCI/ADR-RES
[9] = system: PC-3
[10] = system: RXF 393
[11] = system: MDA-N
[12] = system: Hs-578T
[13] = system: SR
[14] = system: U-251
[15] = system: MDA-MB-231
[16] = system: 786-0
[17] = system: MDA-MB-435
[18] = system: MCF7
[19] = system: K562

| SMILES | GI50 [1] | GI50 [2] | GI50 [3] | GI50 [4] | GI50 [5] | GI50 [6] | GI50 [7] | GI50 [8] | GI50 [9] | GI50 [10] | GI50 [11] | GI50 [12] | GI50 [13] | GI50 [14] | GI50 [15] | GI50 [16] | GI50 [17] | GI50 [18] | GI50 [19] |
| --- | --- | --- | --- | --- | --- | --- | --- | --- | --- | --- | --- | --- | --- | --- | --- | --- | --- | --- | --- |
| FC(F)(F)c1ccc2c(c1)nc1n2C(c2c(Cl)cccc2Cl)SC1 (stereo unspecified) | 16.1 µM (inactive) | 21.1 µM (inactive) | 15.8 µM (inactive) | 21.4 µM (inactive) | 15.4 µM (inactive) | 23 µM (inactive) | 21.8 µM (inactive) | 21.5 µM (inactive) | 15 µM (inactive) | 14.4 µM (inactive) | 16.6 µM (inactive) | 19.7 µM (inactive) | 20.7 µM (inactive) | 19.3 µM (inactive) | 17 µM (inactive) | 16.6 µM (inactive) | 16.8 µM (inactive) | 15.7 µM (inactive) | – |
| CN(C)CC1CCC/C(=C\c2ccccc2)C1=O (stereo unspecified) | – | 2.82 µM (inactive) | 2.12 µM (inactive) | 15.3 µM (inactive) | 19.9 µM (inactive) | 7.69 µM (inactive) | 15.5 µM (inactive) | 10.8 µM (inactive) | 8.49 µM (inactive) | 2.84 µM (inactive) | 2.99 µM (inactive) | 2.77 µM (inactive) | 0.944 µM (active) | 15.4 µM (inactive) | 1.98 µM (inactive) | 2.65 µM (inactive) | 1.78 µM (inactive) | 0.575 µM (active) | – |
| O=C1c2ccccc2C2(c3ccc(Cl)cc3)N[C@H]3CCCC[C@@H]3N12 (stereo partly specified) | – | 61.1 µM (inactive) | > 100 µM (inactive) | > 100 µM (inactive) | 41.1 µM (inactive) | > 100 µM (inactive) | – | 63 µM (inactive) | > 100 µM (inactive) | 97.9 µM (inactive) | > 100 µM (inactive) | 59.2 µM (inactive) | 43.6 µM (inactive) | > 100 µM (inactive) | > 100 µM (inactive) | 95.1 µM (inactive) | > 100 µM (inactive) | – | > 100 µM (inactive) |
| CSC1(C)C(=O)Nc2c(OCc3ccccc3)cc([N+](=O)[O-])cc21 (stereo unspecified) | 29.8 µM (inactive) | 13.5 µM (inactive) | 19.3 µM (inactive) | > 100 µM (inactive) | > 100 µM (inactive) | 51.1 µM (inactive) | > 100 µM (inactive) | 28.4 µM (inactive) | 27 µM (inactive) | 51.3 µM (inactive) | 30.1 µM (inactive) | 17.7 µM (inactive) | > 100 µM (inactive) | 19.9 µM (inactive) | 26.7 µM (inactive) | 12.9 µM (inactive) | 78.3 µM (inactive) | 14 µM (inactive) | 91 µM (inactive) |
| O=[N+]([O-])c1ccc(C2=NOC(c3ccccc3F)N2C23CC4CC(CC(C4)C2)C3)cc1 (stereo unspecified) | > 100 µM (inactive) | > 100 µM (inactive) | > 100 µM (inactive) | > 100 µM (inactive) | > 100 µM (inactive) | > 100 µM (inactive) | > 100 µM (inactive) | > 100 µM (inactive) | > 100 µM (inactive) | – | > 100 µM (inactive) | > 100 µM (inactive) | > 100 µM (inactive) | > 100 µM (inactive) | > 100 µM (inactive) | > 100 µM (inactive) | > 100 µM (inactive) | > 100 µM (inactive) | > 100 µM (inactive) |
| CC1(C)[C@H](C(=O)O)N2C(=O)[C@@H](NS(=O)(=O)c3ccc([N+](=O)[O-])cc3)[C@H]2S1(=O)=O | > 100 µM (inactive) | > 100 µM (inactive) | > 100 µM (inactive) | > 100 µM (inactive) | > 100 µM (inactive) | > 100 µM (inactive) | > 100 µM (inactive) | > 100 µM (inactive) | > 100 µM (inactive) | > 100 µM (inactive) | > 100 µM (inactive) | > 100 µM (inactive) | – | > 100 µM (inactive) | > 100 µM (inactive) | > 100 µM (inactive) | > 100 µM (inactive) | > 100 µM (inactive) | > 100 µM (inactive) |
| CC1OC1C(=O)P(=O)(O)O (stereo unspecified) | > 100 µM (inactive) | > 100 µM (inactive) | > 100 µM (inactive) | > 100 µM (inactive) | > 100 µM (inactive) | > 100 µM (inactive) | > 100 µM (inactive) | > 100 µM (inactive) | > 100 µM (inactive) | – | > 100 µM (inactive) | > 100 µM (inactive) | > 100 µM (inactive) | > 100 µM (inactive) | > 100 µM (inactive) | – | > 100 µM (inactive) | > 100 µM (inactive) | > 100 µM (inactive) |
| FC(F)(F)c1ccc(/N=N/N2CCCC2)cc1 | > 100 µM (inactive) | > 100 µM (inactive) | 23.6 µM (inactive) | > 100 µM (inactive) | > 100 µM (inactive) | > 100 µM (inactive) | > 100 µM (inactive) | – | > 100 µM (inactive) | > 100 µM (inactive) | > 100 µM (inactive) | > 100 µM (inactive) | 68.7 µM (inactive) | > 100 µM (inactive) | > 100 µM (inactive) | > 100 µM (inactive) | > 100 µM (inactive) | > 100 µM (inactive) | > 100 µM (inactive) |
